For assay [1], the target named is Human recombinant monoamine oxidase MAO-B (Homo sapiens (Human), UniProt P27338). Kind of assay: Monoamine oxidase assay (kynuramine to 4-hydroxyquinoline fluorescence), MAO-B. The format is biochemical. An excerpt:
(§1) Human recombinant monoamine oxidase proteins MAO-A and MAO-B were purchased from Sigma Aldrich. MAOs catalyze the oxidative deamination of primary, secondary and tertiary amines. In order to monitor MAO enzymatic activities and/or their inhibition rate by inhibitor(s) of interest, a fluorescence-based (inhibitor)-screening assay was set up. 3-(2-Aminophenyl)-3-oxopropanamine (kynuramine dihydrobromide, Sigma Aldrich), a non fluorescent compound was chosen as a substrate. Kynuramine is a non-specific substrate for both MAO-A and MAO-B activities. While undergoing oxidative deamination by MAO activities, kynuramine is converted into 4-hydroxyquinoline (4-HQ), a resulting fluorescent product.
(§2) The monoamine oxidase activity was estimated by measuring the conversion of kynuramine into 4-hydroxyquinoline. Assays were conducted in 96-well black plates with clear bottom (Corning) in a final volume of 100 μL. The assay buffer was 100 mM HEPES, pH 7.5. Each experiment was performed in duplicate within the same experiment.
(§3) Clorgyline and Deprenyl (Sigma Aldrich) was used as a control for specific inhibition of MAO-A and MAO-B respectively. […]
(§4) The IC50 values of each inhibitor were calculated with GraphPad Prism Software.

Assay [2] deals with Human recombinant monoamine oxidase MAO-A (Homo sapiens (Human), UniProt P21397). Kind of assay: Monoamine oxidase assay (kynuramine to 4-hydroxyquinoline fluorescence), MAO-A. The assay is classed as biochemical.
Chain of Human recombinant monoamine oxidase MAO-A (P21397 whole entry): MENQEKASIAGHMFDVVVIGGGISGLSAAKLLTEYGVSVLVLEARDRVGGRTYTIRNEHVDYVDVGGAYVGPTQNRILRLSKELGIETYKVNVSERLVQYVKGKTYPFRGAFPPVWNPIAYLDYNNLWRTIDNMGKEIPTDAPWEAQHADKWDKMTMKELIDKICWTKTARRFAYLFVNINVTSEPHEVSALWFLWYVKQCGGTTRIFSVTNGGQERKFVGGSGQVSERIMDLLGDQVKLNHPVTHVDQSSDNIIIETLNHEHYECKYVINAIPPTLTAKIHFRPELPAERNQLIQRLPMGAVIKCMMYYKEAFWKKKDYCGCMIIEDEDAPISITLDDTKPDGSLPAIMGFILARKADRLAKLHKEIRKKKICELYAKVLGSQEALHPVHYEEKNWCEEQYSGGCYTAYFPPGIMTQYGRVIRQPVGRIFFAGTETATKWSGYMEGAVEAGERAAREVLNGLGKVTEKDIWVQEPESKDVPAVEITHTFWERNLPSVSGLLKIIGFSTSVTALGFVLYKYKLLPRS
Source text: as §1, §2, §3, §4

Assay [3] deals with Human recombinant LSD1 protein (Homo sapiens (Human), UniProt O60341). In words: Inhibition of LSD1 (Amplex Red H2O2 release, di-methylated H3-K4 peptide substrate).

The source of these data is US9487512B2, “(Hetero)aryl cyclopropylamine compounds as LSD1 inhibitors” (ORYZON GENOMICS, S.A., priority 2011, dated 2016).

pIC50: −log10 of the molar value.

Chain of Human recombinant monoamine oxidase MAO-B (P27338 whole entry): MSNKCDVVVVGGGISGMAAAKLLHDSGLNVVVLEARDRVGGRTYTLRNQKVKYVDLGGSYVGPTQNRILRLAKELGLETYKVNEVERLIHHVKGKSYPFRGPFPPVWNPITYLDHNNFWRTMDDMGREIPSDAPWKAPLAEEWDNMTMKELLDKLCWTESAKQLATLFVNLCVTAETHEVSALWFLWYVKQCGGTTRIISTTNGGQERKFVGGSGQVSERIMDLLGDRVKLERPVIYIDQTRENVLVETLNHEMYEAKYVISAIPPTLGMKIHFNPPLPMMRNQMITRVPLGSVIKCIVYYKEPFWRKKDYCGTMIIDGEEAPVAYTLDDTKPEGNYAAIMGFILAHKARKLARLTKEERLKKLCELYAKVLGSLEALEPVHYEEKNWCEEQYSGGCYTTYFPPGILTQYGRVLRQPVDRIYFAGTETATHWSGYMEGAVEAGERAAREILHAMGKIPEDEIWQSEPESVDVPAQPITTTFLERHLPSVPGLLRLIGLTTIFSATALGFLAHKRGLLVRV

`Oc1ccc(C2CC2NC2CCNCC2)cc1` (stereo not drawn) [Example 23, 4-(2-(piperidin-4-ylamino)cyclopropyl)phenol]: the IC50 in assay [1] and in assay [2] was over 100 µM in each case. Further, in assay [3], the pIC50 is about 4.00.

What is called IC50 is the concentration that inhibits the measured activity by half. What is called pIC50 is −log10 of the IC50, conventionally taken in molar units.
